The text below walks through data of patent publication US20260008775A1, “AZOLE MODULATORS OF CHOLESTEROL BIOSYNTHESIS AND THEIR USE FOR PROMOTING REMYELINATION” (GENENTECH, INC., priority 2022, published 2026).

A word on the Ki: it is a dissociation constant, usually derived from enzyme kinetics or from competition with a known ligand. One may read the EC50 as the concentration at which the effect is half-maximal.

The target of assay [1] is human emopamil binding protein and human 7-dehydrocholesterol reductase (hEBP-DHCR7) (Homo sapiens (Human), UniProt Q15125). Description: hEBP-DHCR7 radioligand binding assay (filter binding, membranes of co-expressing HEK293 cells). To be noted: competition with [3H] radioligand, 8 doses 0.06 to 5000 nM, Ki calculated from IC50. In short, it runs like this: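 Compound, either single dose 1 μM or eight 5-fold dilutions from 0.06 to 5000 nM, competed with a [3H]-labelled ligand added at 25 nM for binding to co-expressing HEK293 membranes. IC50 came from nonlinear regression, with full block and DMSO as controls, then Cheng–Prusoff conversion to Ki.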
Chain of human emopamil binding protein and human 7-dehydrocholesterol reductase (hEBP-DHCR7) (Q15125 whole entry): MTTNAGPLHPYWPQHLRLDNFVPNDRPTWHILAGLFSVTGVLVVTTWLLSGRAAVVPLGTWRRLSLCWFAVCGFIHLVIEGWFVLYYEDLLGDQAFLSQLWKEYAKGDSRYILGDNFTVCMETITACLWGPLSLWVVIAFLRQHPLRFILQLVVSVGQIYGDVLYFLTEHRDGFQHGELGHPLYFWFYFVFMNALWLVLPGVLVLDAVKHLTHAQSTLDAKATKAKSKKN

Assay [2] has as its system zymostenol accumulation (EBP) in EpiSC-derived OPCs. Description: GC/MS-based sterol profiling, zymostenol accumulation in EpiSC-derived OPCs. It counts as cell-based, mouse. To be noted: Mus musculus, 24 h, EpiSC-derived OPCs, 24 hr, 8 doses from 0.15 nM to 333 nM; read-out: Mouse Zymostenol GCMS EC50. In short, it runs like this:
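Zymostenol level is expressed relative to that after 24 h with 100 nM positive-control reference, measured by full-scan GC/MS (m/z 458) with cholesterol-d7 internal standard after BSTFA derivatisation. Cells were EpiSC-derived OPCs, 100,000/well in N2B27 without growth factors, treated 24 h, from two or more independent platings.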

Assay [3] has as its system EpiSC-derived OPCs. In words: In vitro phenotypic screening of OPCs, MBP high-content imaging (percentage of oligodendrocytes). It counts as cell-based, mouse. To be noted: Mus musculus, 72 h, 3 days, MBP stain, dose-response 0.5 nM to 1000 nM; read-out: OPC EC50. In short, it runs like this:
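EC50 was fitted by Hill equation to the MBP-positive oligodendrocyte percentage from imaging of fixed, MBP- and DAPI-stained cells. Treatment lasted 3 days at 37 °C, final doses 0.5–1000 nM over 8 points, in growth factor-free N2B27. Cells were EpiSC-derived OPCs, tested in at least two independent platings.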

Regarding `CC(C)n1nc(-c2cncc(C(F)(F)F)c2)cc1[C@H]1[C@@H]2C[C@H](N3CCCOCC3)C[C@@H]21` [Compound 29, 4-((1R,3s,5S,6r)-6-(1-Isopropyl-3-(5-(trifluoromethyl)pyridin-3-yl)-1H-pyrazol-5-yl)bicyclo [3.1.0]hexan-3-yl)-1,4-oxazepane], the Ki in assay [1] is 20 nM. Further, the EC50 in assay [2] was determined as 3.19 nM; in assay [3], 19.8 nM.
For the molecule `CC(C)n1nc(-c2cccc(C(F)(F)F)n2)cc1[C@H]1[C@@H]2C[C@@H](N3CCOCC3)C[C@@H]21` [Compound 31, 4-((1R,3s,5S,6r)-6-(1-Isopropyl-3-(6-(trifluoromethyl)pyridin-2-yl)-1H-pyrazol-5-yl)bicyclo[3.1.0]hexan-3-yl)morpholine], the Ki in assay [1] is 100 nM. In addition, the figures for the EC50 in assay [2] and in assay [3] were 241 nM and 643 nM, respectively.
Take `CC(C)n1nc(-c2cccc(C(F)(F)F)n2)cc1[C@H]1[C@@H]2C[C@H](N3CCOCC3)C[C@@H]21` [Compound 32, 4-((1R,3r,5S,6r)-6-(1-isopropyl-3-(6-(trifluoromethyl)pyridin-2-yl)-1H-pyrazol-5-yl)bicyclo[3.1.0]hexan-3-yl)morpholine]: the Ki in assay [1] was 34.5 nM. Further, the EC50 in assay [2] came to 52 nM; in assay [3] it was 354 nM.
Take `CC(C)n1nc(-c2cncc(C(F)(F)F)c2)cc1[C@H]1[C@@H]2C[C@@H](N3CCOC(C)(C)C3)C[C@@H]21` [Compound 33, 4-((1R,3s,5S,6r)-6-(1-Isopropyl-3-(5-(trifluoromethyl)pyridin-3-yl)-1H-pyrazol-5-yl)bicyclo[3.1.0]hexan-3-yl)-2,2-dimethylmorpholine]: the Ki in assay [1] was 19.4 nM. In addition, the results for the EC50 in assay [2] and in assay [3] were 5.33 nM and 30.5 nM, respectively.
For `CC(C)n1nc(-c2cncc(C(F)(F)F)c2)cc1[C@H]1[C@@H]2C[C@H](N3CCOC(C)(C)C3)C[C@@H]21` [Compound 34, 4-((1R,3r,5S,6r)-6-(1-isopropyl-3-(5-(trifluoromethyl)pyridin-3-yl)-1H-pyrazol-5-yl)bicyclo[3.1.0]hexan-3-yl)-2,2-dimethylmorpholine], in that order: 34.5 nM, 52 nM and 354 nM.
As for `CC(C)n1nc(-c2ccc(C(F)(F)F)nc2)cc1[C@H]1[C@@H]2C[C@@H](N3CCCOCC3)C[C@@H]21` [Compound 47, 4-((1R,3S,5S,6R)-6-(1-Isopropyl-3-(6-(trifluoromethyl)pyridin-3-yl)-1H-pyrazol-5-yl)bicyclo[3.1.0]hexan-3-yl)-1,4-oxazepane], the Ki in assay [1] was 43 nM. Further, the figures for the EC50 in assay [2] and in assay [3] were 46 nM and 145 nM, respectively.
With `CC(C)n1nc(-c2ccc(C(F)(F)F)nc2)cc1[C@H]1[C@@H]2C[C@H](N3CCCOCC3)C[C@@H]21` [Compound 48, 4-((1R,3S,5S,6R)-6-(1-Isopropyl-3-(6-(trifluoromethyl)pyridin-3-yl)-1H-pyrazol-5-yl)bicyclo[3.1.0]hexan-3-yl)-1,4-oxazepane], the Ki in assay [1] was 18.4 nM. The EC50 came out at 7.28 nM in assay [2] and 11.6 nM in assay [3].
On the same counts, the results for `CC(C)n1nc(-c2cccc(C(F)(F)F)n2)cc1[C@H]1[C@@H]2C[C@@H](N3CCCOCC3)C[C@@H]21` [Compound 49, 4-((1R,3s,5S,6r)-6-(1-Isopropyl-3-(6-(trifluoromethyl)pyridin-2-yl)-1H-pyrazol-5-yl)bicyclo[3.1.0]hexan-3-yl)-1,4-oxazepane] are 53 nM, 42 nM and 75 nM.
On the same counts, the results for `CC(C)n1nc(-c2cccc(C(F)(F)F)n2)cc1[C@H]1[C@@H]2C[C@H](N3CCCOCC3)C[C@@H]21` [Compound 50, 4-((1R,3r,5S,6r)-6-(1-Isopropyl-3-(6-(trifluoromethyl)pyridin-2-yl)-1H-pyrazol-5-yl)bicyclo[3.1.0]hexan-3-yl)-1,4-oxazepane] are 21 nM, 1.62 nM and 7.72 nM.
On the same counts, the results for `CC(C)n1nc(-c2cncc(C(F)(F)F)c2)nc1[C@H]1[C@@H]2C[C@H](N3CCCOCC3)C[C@@H]21` [Compound 51, 4-((1R,3r,5S,6r)-6-(1-Isopropyl-3-(5-(trifluoromethyl)pyridin-3-yl)-1H-1,2,4-triazol-5-yl)bicyclo[3.1.0]hexan-3-yl)-1,4-oxazepane] are 358 nM, 77 nM and 82.5 nM.
For the molecule `CC(C)n1nc(-c2cncc(C(F)(F)F)c2)nc1[C@H]1[C@@H]2C[C@@H](N3CCCOCC3)C[C@@H]21` [Compound 52, 4-((1R,3s,5S,6r)-6-(1-Isopropyl-3-(5-(trifluoromethyl)pyridin-3-yl)-1H-1,2,4-triazol-5-yl)bicyclo[3.1.0]hexan-3-yl)-1,4-oxazepane], in assay [1], the Ki is 18.1 nM. Also, the EC50 in assay [2] was 3.1 nM; in assay [3], 6.29 nM.
On the same counts, the results for `CCn1nc(-c2cncc(C(F)(F)F)c2)cc1[C@H]1[C@@H]2C[C@@H](N3CCCOCC3)C[C@@H]21` [Compound 53, 4-((1R,3s,5S,6r)-6-(1-Ethyl-3-(5-(trifluoromethyl)pyridin-3-yl)-1H-pyrazol-5-yl)bicyclo[3.1.0]hexan-3-yl)-1,4-oxazepane] are 12.5 nM, 13.8 nM and 75 nM.
Turning to `CCn1nc(-c2cncc(C(F)(F)F)c2)cc1[C@H]1[C@@H]2C[C@H](N3CCCOCC3)C[C@@H]21` [Compound 54, 4-((1R,3r,5S,6r)-6-(1-ethyl-3-(5-(trifluoromethyl)pyridin-3-yl)-1H-pyrazol-5-yl)bicyclo[3.1.0]hexan-3-yl)-1,4-oxazepane], the inhibition constant Ki in assay [1] was 10.6 nM. Besides, the EC50 in assay [2] turned out to be 3 nM; in assay [3], 12.4 nM.
Take `CC(C)n1nc(-c2cccc(C(F)(F)F)c2)nc1[C@H]1[C@@H]2C[C@@H](N3CCOC[C@@H]3C)C[C@@H]21` [Compound 66, (S)-4-((1R,3r,5S,6S)-6-(1-Isopropyl-3-(3-(trifluoromethyl)phenyl)-1H-1,2,4-triazol-5-yl)bicyclo[3.1.0]hexan-3-yl)-3-methylmorpholin]: the Ki in assay [1] is 50.2 nM. In addition, the EC50 was determined as 2.84 nM in assay [2] and 14.9 nM in assay [3].
For `CC(C)n1nc(-c2cccc(C(F)(F)F)c2)nc1[C@H]1[C@@H]2C[C@H](N3CCOC[C@@H]3C)C[C@@H]21` [Compound 67, (S)-4-((1R,3s,5S,6S)-6-(1-Isopropyl-3-(3-(trifluoromethyl)phenyl)-1H-1,2,4-triazol-5-yl)bicyclo[3.1.0]hexan-3-yl)-3-methylmorpholine], in that order: 50 nM, 66.5 nM and 233 nM.
For `CC(C)n1nc(-c2cncc(OC(F)F)c2)nc1[C@H]1[C@@H]2C[C@@H](N3CCCOCC3)C[C@@H]21` [Compound 68, 4-((1R,3s,5S,6r)-6-(3-(5-(Difluoromethoxy)pyridin-3-yl)-1-isopropyl-1H-1,2,4-triazol-5-yl)bicyclo[3.1.0]hexan-3-yl)-1,4-oxazepane], the Ki in assay [1] was 119 nM. Moreover, the EC50 amounted to 146 nM in assay [2] and 417 nM in assay [3].
For `CC(C)n1nc(-c2cncc(OC(F)F)c2)nc1[C@H]1[C@@H]2C[C@H](N3CCCOCC3)C[C@@H]21` [Compound 69, 4-((1R,3r,5S,6r)-6-(3-(5-(Difluoromethoxy)pyridin-3-yl)-1-isopropyl-1H-1,2,4-triazol-5-yl)bicyclo[3.1.0]hexan-3-yl)-1,4-oxazepane], in that order: 27.9 nM, 8.19 nM and 27.3 nM.
